pIC50: −log10 of the molar value.
Molecular target: T1, Bovine thrombin (Bos taurus, UniProt P00735)
T1 construct: Bovine thrombin was titrated to an appropriate concentration
Experiment: thrombin induced fibrin clot inhibition assay
Format: biochemical
Settings: read-out: In vitro potency
Protocol: Samples were tested in a thrombin induced fibrin clot inhibition assay. All the solutions of the assay were made with an assay buffer containing 0.12 M sodium chloride, 0.01 M sodium phosphate, 0.01% sodium azide and 0.1% bovine serum albumin, pH 7.4. […] This solution of thrombin (50 ul; 0.2 pmol) was added to the wells of a microtiter plate containing 50 ul of a solution of the synthetic peptide being tested. […] The turbidity of the solution was monitored by the autoreader at 5 min intervals. […] For the assays using human or bovine thrombin, thrombin was titrated to concentrations that gave the fibrin clot at the same rate over a 30 min period.

Compound: CC[C@H](C)[C@H](NC(=O)[C@@H]1CCCN1C(=O)[C@H](CCC(=O)O)NC(=O)[C@H](Cc1cc(I)c(O)c(I)c1)NC(=O)CCC(=O)O)C(=O)N1CCC[C@H]1C(=O)N[C@@H](CCC(=O)O)C(=O)N[C@@H](CCC(=O)O)C(=O)N[C@@H](C)C(=O)N[C@@H](CC1CCCCC1)C(=O)N[C@H](CCC(=O)O)C(=O)O [Example 1]
- pIC50: > 4.60
